Source: patent US11999727B2 (Tango Therapeutics, Inc., priority 2020, dated 2024)
Read-outs that look alike come from different tables or passages of the source.

Legend:
[1] = system: HAP1 MTAP-deleted cell line; assay: Viability assay, MTAP-deleted cell line; assay type: cell-based; conditions: MTAP-deleted cell line, read-out: HAP1 MTAP deleted viability
Description: Table 1 additionally indicates IC50 values in a viability assay for the MTAP-deleted cell line (column 10), indicating the effect of treatment with compound on cell survival.

[2] = target: T1, PRMT5 (Homo sapiens, UniProt O14744); assay: PRMT5 biochemical IC50 assay with MTA as cofactor; conditions: PRMT5, MTA as cofactor; read-out: MTA IC50
T1 construct: purchased Viva (custom protein)
T1 sequence (O14744 whole entry): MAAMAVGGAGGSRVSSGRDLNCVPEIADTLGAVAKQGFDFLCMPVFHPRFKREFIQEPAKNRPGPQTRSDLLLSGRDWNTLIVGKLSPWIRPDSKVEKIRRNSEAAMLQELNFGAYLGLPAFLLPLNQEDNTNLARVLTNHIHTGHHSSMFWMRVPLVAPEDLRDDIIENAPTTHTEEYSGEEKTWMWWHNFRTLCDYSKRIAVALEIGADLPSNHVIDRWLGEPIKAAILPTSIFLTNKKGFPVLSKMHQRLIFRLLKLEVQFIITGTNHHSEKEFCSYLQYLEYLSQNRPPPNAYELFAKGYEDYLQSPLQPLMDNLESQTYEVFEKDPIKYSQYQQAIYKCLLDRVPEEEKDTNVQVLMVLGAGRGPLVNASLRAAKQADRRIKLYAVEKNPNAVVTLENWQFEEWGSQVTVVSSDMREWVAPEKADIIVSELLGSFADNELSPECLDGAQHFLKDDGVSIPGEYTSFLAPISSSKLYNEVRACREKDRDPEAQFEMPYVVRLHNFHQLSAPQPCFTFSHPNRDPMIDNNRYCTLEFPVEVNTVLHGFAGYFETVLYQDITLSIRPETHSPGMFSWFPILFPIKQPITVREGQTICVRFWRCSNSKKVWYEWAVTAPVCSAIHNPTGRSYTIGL
T1 sequence (Q9BQA1 whole entry partner): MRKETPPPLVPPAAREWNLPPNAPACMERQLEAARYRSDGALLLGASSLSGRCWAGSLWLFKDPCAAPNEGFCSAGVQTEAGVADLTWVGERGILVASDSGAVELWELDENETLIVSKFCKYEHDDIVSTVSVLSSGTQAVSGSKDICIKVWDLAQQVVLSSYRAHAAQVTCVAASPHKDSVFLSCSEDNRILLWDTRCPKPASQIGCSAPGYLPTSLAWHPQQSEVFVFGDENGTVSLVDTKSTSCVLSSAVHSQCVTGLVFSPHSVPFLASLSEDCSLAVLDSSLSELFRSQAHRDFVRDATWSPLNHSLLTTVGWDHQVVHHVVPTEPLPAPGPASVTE

[3] = target: T1, PRMT5; assay: PRMT5 biochemical IC50 assay with no cofactor; conditions: PRMT5, no cofactor; read-out: No Cofactor/rel IC50
Description: Table 1 indicates IC50 values (μM) against PRMT5 for exemplary compounds in the presence of SAM as cofactor, with no cofactor, and with MTA as cofactor, respectively (columns 4-6). […] Ki values can be calculated from the IC50 values as described in the Examples section. As detailed in the Examples section, for the assay performed in the presence of SAM, IC50=Ki×1.5 (Ki=IC50/1.5).

[4] = target: T1, PRMT5; assay: PRMT5 biochemical IC50 assay with SAM as cofactor; conditions: PRMT5, SAM as cofactor; read-out: SAM IC50
[5] = Homo sapiens, HAP1, viability assay

Structure (SMILES)	IC50 [2] [nM]	IC50 [3] [nM]	IC50 [4] [nM]	IC50 ([1]; viability assay) [nM]	IC50 [1, 5] [nM]
COc1ncc(NC(=O)C(=O)N2CCCCC2C2CCCC2)cc1C(N)=O (single isomer, unassigned) [Compound 289, 5-(2-(2-cyclopentylpiperidin-1-yl)-2-oxoacetamido)-2-methoxynicotinamide]	> 500	> 500	> 500	> 10000	
COc1ncc(NC(=O)C(=O)N2C[C@@H](C)CC[C@H]2C2CCCC2)cc1C(N)=O (single isomer, unassigned) [Compound 295]	> 500	> 500	> 500		> 10000
CC(=O)N[C@H]1CC[C@H]([C@H]2CC[C@H](C)CN2C(=O)C(=O)Nc2cnc(N)c(C)c2)CC1 (single isomer, unassigned) [Compound 296]	50 to 500	> 500	> 500		> 10000
COc1ncc(NC(=O)C(=O)N2C[C@@H](C)CC[C@@H]2C2CCCC2)cc1C(N)=O (single isomer, unassigned) [Compound 298]	> 500	> 500	> 500		> 10000
Cc1cc(NC(=O)C(=O)N2C[C@@H](C)[C@@H](C)C[C@H]2c2ccccc2)cnc1N (single isomer, unassigned) [Compound 304]	50 to 500	50 to 500	50 to 500		> 10000
COc1ncc(NC(=O)C(=O)N2C[C@H](C)CC[C@@H]2C2CCCC2)cc1C(N)=O (single isomer, unassigned) [Compound 312]	50 to 500	> 500	50 to 500		> 10000
COc1ncc(NC(=O)C(=O)N2C[C@H](C)CC[C@@H]2C2CCCCC2)cc1C(N)=O (single isomer, unassigned) [Compound 389]	50 to 500	> 500	> 500		> 10000
C[C@@H]1CC[C@H](c2ccc(O)nc2)N(C(=O)C(=O)Nc2cncc(C(N)=O)c2)C1 (single isomer, unassigned) [Compound 401]	< 50	50 to 500	50 to 500		> 10000

Continued, in another order:

IC50 [2] [nM]	IC50 [3] [nM]	IC50 [4] [nM]	Structure (SMILES)	IC50 ([1]; viability assay) [nM]	IC50 [1, 5] [nM]
> 500	> 500	> 500	Cc1cc(NC(=O)C(=O)N2C[C@@H](C)CC[C@@H]2[C@H]2CC[C@@H](O)CC2)cnc1N (single isomer, unassigned) [Compound 423]		> 10000
> 500	> 500	> 500	CNc1ccc([C@@H]2CC[C@@H](C)CN2C(=O)C(=O)Nc2cncc(C(N)=O)c2)cc1 (single isomer, unassigned) [Compound 424]		> 10000
> 500	> 500	> 500	C[C@H]1CC[C@H](c2ccc3c(c2)CCCN3)N(C(=O)C(=O)Nc2cncc(C(N)=O)c2)C1 (single isomer, unassigned) [Compound 426]		> 10000
> 500	> 500	> 500	Cc1cc(NC(=O)C(=O)N2C[C@@H](C)CC[C@@H]2[C@H]2CC[C@H](O)CC2)cnc1N (single isomer, unassigned) [Compound 434]		> 10000
> 500	> 500	> 500	C[C@@H]1CC[C@@H](c2ccccc2)N(C(=O)C(=O)Nc2cncc(C(N)=O)c2)[C@@H]1C (single isomer, unassigned) [Compound 435]		> 10000
> 500	> 500	> 500	C[C@@H]1CC[C@@H](c2cccc(Cl)c2)N(C(=O)C(=O)Nc2cncc(C(N)=O)c2)C1 (single isomer, unassigned) [Compound 441]		> 10000
> 500	> 500	> 500	CNc1ccc([C@H]2CC[C@H](C)CN2C(=O)C(=O)Nc2cncc(C(N)=O)c2)cn1 (single isomer, unassigned) [Compound 444]		> 10000
